Patent publication US20260335446A1, “TETRAZINE-BASED TARGETING AGENTS FOR IN VIVO DELIVERY OF A PAYLOAD” (Tambo, Inc., priority 2023, published 2026)

Assays:
[1] = LCMS analysis of drug release by tetrazines (TCO-MMAE Compound B); details: tetrazine 20 μM, Compound B 10 μM, PBS
Protocol: A solution of each tetrazine (20 μM final concentration) in PBS is mixed with TCO-MMAE Compound B (10 μM final concentration). The solution is mixed thoroughly and an aliquot removed at the appropriate time for analysis by LCMS.

[2] = LC-MS quantification of conversion of protodrug in presence of Compound 111 in rat plasma-EDTA; details: FIG. 2, 37° C., Compound 111 100 μg/mL, protodrug 250 ng/mL
Protocol: Liquid chromatography-mass spectrometry (LC-MS) was used to quantify the conversion of Compound B protodrug to MMAE and Compound F to exatecan in the presence of Compound 111. Compound 111 (100 μg/mL) was added to rat plasma-EDTA and incubated at 37° C. The protodrugs, Compound B and Compound F, were added to the plasma with the final concentration of 250 ng/mL. At each time point, triplicate aliquots were transferred to a plate with various pH extraction conditions and precipitated with acetonitrile for Compound B/MMAE or methanol for Compound F/exatecan. LC-MS/MS analyzed the extracted samples with the instrument methods previously established for each analyte. The conversion percentage was calculated based on the initial concentration of protodrugs and the formation of exatecan and MMAE in mole/mL.

Row | SMILES | % Compound B consumed (1 h) [1] | also measured
1 | Cc1nnc(-c2ccccn2)nn1 | 100% | 
2 | Cc1nnc(-c2ccc(CN)c(C(F)(F)F)c2)nn1 | 100% | 
3 | Cc1nnc(-n2cccn2)nn1 | 81% | 
4 | Cc1nnc(-c2cn(C)cn2)nn1 | 74% | 
5 | Cc1nnc(-c2cocn2)nn1 | 42% | 
6 | Cc1nnc(-c2ccc(C(F)(F)F)c(CN)c2)nn1 | 100% | 
7 | CC[C@H](C)[C@@H]([C@@H](CC(=O)N1CCC[C@H]1[C@H](OC)[C@@H](C)C(=O)N[C@H](C)[C@@H](O)c1ccccc1)OC)N(C)C(=O)[C@@H](NC(=O)[C@H](C(C)C)N(C)C(=O)O[C@H]1/C=C/CC[C@@](C)(C(=O)N[C@@H](CC(=O)O)C(=O)O)CC1)C(C)C [Compound B] |  | conversion to MMAE after reaction with Compound 111 [2]: rapidly converted
8 | CC[C@@]1(O)C(=O)OCc2c1cc1n(c2=O)Cc2c-1nc1cc(F)c(C)c3c1c2[C@@H](NC(=O)O[C@H]1/C=C/CC[C@@](C)(C(=O)NCCOCCOCCOCCN(CCOCCOCCOCCC(=O)O)CCOCCOCCOCCC(=O)O)CC1)CC3 [Compound F] |  | conversion to exatecan after reaction with Compound 111 [2]: rapidly converted
9 | Cc1nnc(-c2ncccn2)nn1 | 100% | 
